Results on six molecules are retold here after patent publication US5599953A, “C-glycoside analogues of N-(4-hydroxyphenyl)retinamide-O-glucuronide” (The Ohio State Research Foundation, priority 1995, dated 1997).

“Also recorded” adds a separate entry of the source. Like-named read-outs stand apart in the source and are kept apart here.

The subject of assay [1] is DMBA-Induced Rat Mammary Tumors. Description: Effect on progression of DMBA-induced rat mammary tumors. To be noted: 1 mmol/Kg in diet. The format is in vivo. An excerpt:
The control rats received DMBA intubation only and AIN-76A rat chow.

In assay [2] the target is T1, human retinoic acid receptor γ (Homo sapiens, UniProt P13631).
T1 construct: made in house
T1 sequence (P13631 1-454): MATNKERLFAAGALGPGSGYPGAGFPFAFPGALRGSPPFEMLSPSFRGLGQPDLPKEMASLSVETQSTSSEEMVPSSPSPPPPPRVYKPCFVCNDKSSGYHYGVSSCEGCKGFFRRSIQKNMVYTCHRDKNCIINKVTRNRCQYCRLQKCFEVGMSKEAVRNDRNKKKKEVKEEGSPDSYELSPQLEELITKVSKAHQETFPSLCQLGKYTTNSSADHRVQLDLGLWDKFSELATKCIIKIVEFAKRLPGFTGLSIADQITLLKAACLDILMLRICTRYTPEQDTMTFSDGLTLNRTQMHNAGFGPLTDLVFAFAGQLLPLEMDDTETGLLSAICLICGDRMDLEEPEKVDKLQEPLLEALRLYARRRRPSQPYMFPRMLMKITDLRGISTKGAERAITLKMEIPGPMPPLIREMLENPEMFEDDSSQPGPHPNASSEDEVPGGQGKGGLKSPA
The assay is described as follows: Competition binding / retinoic acid binding, human retinoic acid receptor γ/BCV (FIG. 1).

The target in a further assay is T2, mRARα (Mus musculus, UniProt P11416).
T2 construct: made in house; host or cells: Spodoptera frugiperda insect cells, baculovirus (whole cell extract)
T2 sequence (P11416 1-462): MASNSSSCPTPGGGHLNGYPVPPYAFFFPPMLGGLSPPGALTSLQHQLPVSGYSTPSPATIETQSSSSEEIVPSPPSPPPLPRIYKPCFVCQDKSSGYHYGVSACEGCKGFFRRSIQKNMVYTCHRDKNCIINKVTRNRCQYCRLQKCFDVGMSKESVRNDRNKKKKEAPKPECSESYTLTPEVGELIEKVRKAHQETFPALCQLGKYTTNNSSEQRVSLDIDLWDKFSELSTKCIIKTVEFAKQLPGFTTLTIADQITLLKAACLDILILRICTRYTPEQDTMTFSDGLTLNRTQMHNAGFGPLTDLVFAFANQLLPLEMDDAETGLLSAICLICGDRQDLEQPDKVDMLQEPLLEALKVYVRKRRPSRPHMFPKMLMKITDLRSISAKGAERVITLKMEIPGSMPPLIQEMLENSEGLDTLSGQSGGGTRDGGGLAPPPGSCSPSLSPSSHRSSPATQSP
The assay is described as follows: Drug competition with (3H)retinoic acid binding, mRARα. To be noted: read-out: percent reduction of binding of the (3H)retinoic acid, mRARα.

A further assay has as its target T3, mRARγ (Mus musculus, UniProt P18911).
T3 construct: made in house; host or cells: Spodoptera frugiperda insect cells, baculovirus (whole cell extract)
T3 sequence (P18911 1-458): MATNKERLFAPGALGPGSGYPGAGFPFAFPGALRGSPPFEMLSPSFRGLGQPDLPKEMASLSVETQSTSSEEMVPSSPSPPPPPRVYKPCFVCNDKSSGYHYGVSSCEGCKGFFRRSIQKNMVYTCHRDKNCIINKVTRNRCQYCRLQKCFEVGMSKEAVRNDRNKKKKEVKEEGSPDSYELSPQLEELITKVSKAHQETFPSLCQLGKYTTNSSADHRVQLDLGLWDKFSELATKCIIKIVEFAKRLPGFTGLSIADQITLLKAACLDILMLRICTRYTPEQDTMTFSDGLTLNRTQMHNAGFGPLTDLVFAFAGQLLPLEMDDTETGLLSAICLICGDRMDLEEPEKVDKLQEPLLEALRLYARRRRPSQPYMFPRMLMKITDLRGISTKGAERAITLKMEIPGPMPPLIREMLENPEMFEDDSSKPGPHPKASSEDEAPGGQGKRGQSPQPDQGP
The assay is described as follows: Drug competition with (3H)retinoic acid binding, mRARγ. The conditions noted are these: read-out: percent reduction of binding of the (3H)retinoic acid, mRARγ; 1 μM drug; 5 nM [3H]RA.

The subject of the next assay is MCF-7 cells. Description: Growth inhibition of MCF-7 human mammary tumor cells. In kind it is cell-based. The conditions noted are these: for IC50: Homo sapiens, MCF7, 168 h, 7 days, read-out: ED50 for growth inhibition of MCF-7 cells. Here is the method:
The antiproliferative activity of the drugs in MCF-7 human mammary tumor cell culture models were determined.
The MCF-7 cells were obtained originally from the Michigan Cancer Foundation. The cells were routinely grown as monolayers in T-25 plastic tissue culture flasks from Falcon, in Oxnard, Calif. containing 5.0 mL of B-10 medium consisting of Minimum Essential Medium (MEM, Earle's Base) supplemented with 1.0 mM MEM non-essential amino acid, 2.0 mM 1-glutamine,10% fetal bovine serum (FBS), and antibiotics. Culture conditions included a humidified atmosphere of 5% CO2 at 37° C. One-half of the medium was replenished twice a week. Cells were harvested by trypsinization upon confluency. All variables were evaluated in triplicate.
For the growth inhibition assay the MCF-7 cells were plated in 24-well plates at a density of 1.5×10^4 cells/cm^2. […] Control cultures were treated with an equivalent volume of absolute ethanol. On day 7 the cells were harvested by trypsinization and viability was assessed by trypan blue exclusion according to Ueda, H. et al. Cancer 1980, 46, 2203-2209. Total cell counts were obtained using a hemocytometer as well as a the Coulter Counter.

A further assay deals with T4, mRARβ (Mus musculus, UniProt P22605).
T4 construct: made in house; host or cells: Spodoptera frugiperda insect cells, baculovirus (whole cell extract)
T4 sequence (P22605 1-448 isoform P22605-3): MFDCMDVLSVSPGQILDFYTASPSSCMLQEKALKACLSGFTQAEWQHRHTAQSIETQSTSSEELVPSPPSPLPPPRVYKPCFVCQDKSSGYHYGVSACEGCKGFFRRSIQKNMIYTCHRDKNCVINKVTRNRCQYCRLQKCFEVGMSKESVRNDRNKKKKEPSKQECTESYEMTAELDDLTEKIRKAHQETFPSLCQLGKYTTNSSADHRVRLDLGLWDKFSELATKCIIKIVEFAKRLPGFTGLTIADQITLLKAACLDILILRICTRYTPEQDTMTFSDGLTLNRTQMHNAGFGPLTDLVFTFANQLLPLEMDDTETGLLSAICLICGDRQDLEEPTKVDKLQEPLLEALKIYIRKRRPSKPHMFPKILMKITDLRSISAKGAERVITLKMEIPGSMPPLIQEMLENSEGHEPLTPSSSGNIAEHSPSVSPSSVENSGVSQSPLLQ
Description: Drug competition with (3H)retinoic acid binding, mRARβ. The conditions noted are these: read-out: percent reduction of binding of the (3H)retinoic acid, mRARβ; 1 μM drug; 5 nM [3H]RA.

The subject of assay [3] is retinoic acid receptors α, β and γ. Description: Competition with retinoic acid for retinoic acid receptors (RAR α, β, γ), overall. The format is binding. To be noted: 1 μM drug.
Another assay concerns cancer. To be noted: literature; cited from earlier work.

For `CC1=C(/C=C/C(C)=C/C=C/C(C)=C/C(=O)N[C@@H]2O[C@H](CO)[C@@H](O)[C@H](O)[C@H]2O)C(C)(C)CCC1` [1-(B-D-glucopyranosyl) retinamide, 1-(β-D-glucopyranosyl) retinamide], the “effect on DMBA-induced mammary tumor development, in words” value in assay [1] was “significantly prolonged the latency period of mammary cancer; also recorded: tumor induction was markedly delayed and reduced; also recorded: greater mammary tumor chemopreventive effect than does retinoic acid; also recorded: inhibit DMBA induced mammary tumor development”. This molecule also gave a tumor latency in assay [1] (15 mg DMBA oral) of 64 days. In assay [1] (110 days post intubation), this molecule showed a tumor incidents of 58% and a tumor number/rat of 0.92 tumors per rat. Besides, the inhibition constant (Ki) (commonly the dissociation constant of the complex between target and ligand, obtained from inhibition or displacement) in assay [2] (1.3 nM [3H]-retinoic acid) stood at 0.71 µM. The “fold less effective than retinoic acid in competing for [3H]-retinoic acid binding to retinoic acid receptor γ” value in assay [2] (vs retinoic acid, FIG. 1) is on record as 1500 fold.
As to `CC1=C(/C=C/C(C)=C/C=C/C(C)=C/C(=O)Nc2ccc(C[C@@H]3O[C@H](CO)[C@@H](O)[C@H](O)[C@H]3O)cc2)C(C)(C)CCC1` [4-(retinamido)benzyl-C-glucoside], the inhibition at 1 µM at mRARα (1 μM drug, 5 nM [3H]RA) was determined as 56%; at mRARγ, 77%; at mRARβ it was 64%. The IC50 with MCF-7 cells (Assay 1) was determined as 3.4 µM. Also, the “growth inhibition of MCF-7 cells, in words” value with MCF-7 cells (comparison of drugs) is on record as “exhibit the best growth inhibition of the cells”. In addition, the “competition with retinoic acid for the receptors, in words” value in assay [3] is on record as “significantly compete with retinoic acid for the receptors”.
Consider `CC1=C(/C=C/C(C)=C/C=C/C(C)=C/C(=O)Nc2ccc(C[C@@H]3OC[C@@H](O)[C@H](O)[C@H]3O)cc2)C(C)(C)CCC1` [4-(retinamido)benzyl-C-xyloside], for which the inhibition at 1 µM turned out to be 12% on mRARα (1 μM drug, 5 nM [3H]RA); 2% on mRARγ; 3% on mRARβ. Also, the IC50 in the assay with MCF-7 cells (Assay 2) came out at 15 µM.
On to `CC1=C(/C=C/C(C)=C/C=C/C(C)=C/C(=O)Nc2ccc([C@@H]3O[C@H](CO)[C@@H](O)[C@H](O)[C@H]3O)cc2)C(C)(C)CCC1` [4-(retinamido)phenyl-C-glucoside], for which the IC50 in the assay with MCF-7 cells (Assay 2) is 27 µM.
Regarding `CC1=C(/C=C/C(C)=C/C=C/C(C)=C\C(=O)O)C(C)(C)CCC1` [13-cis-retinoic acid, reference compound], the inhibition at 1 µM on mRARα came to 28%; at mRARγ, 4%. Further, in the assay with cancer, the cancer preventive activity entry was “display cancer preventive activity”.
On to `CC(=O)OC/C=C(C)/C=C/C=C(C)/C=C/C1=C(C)CCCC1(C)C` [retinyl acetate], for which, in the assay with cancer, the cancer preventive activity entry is recorded as “display cancer preventive activity”.
